Values quoted from earlier work, collected in PMC11859340, “The Therapeutic Potential of Spirooxindoles in Cancer: A Focus on p53–MDM2 Modulation” (Pharmaceuticals, 2025).
Where two headings read alike, the source gives them in different places.

Assays:
MCF7 = test system: MCF7; parameters: method as in PMID 28987608; settings: MTT; read-out: IC50 against MCF7
[1] = test system: HEK 293T (embryonic kidney non-cancer); parameters: method as in PMID 28987608; settings: MTT, read-out: IC50 against HEK 293T
MDA-MB-231 (breast) [2] = test system: MDA-MB-231 (breast); parameters: method as in PMID 28987608; settings: MTT; read-out: IC50 against MDA-MB-231
HCT116 (p53^+/+) = test system: HCT116 (p53^+/+); parameters: method as in PMID 28987608; settings: MTT; read-out: IC50 against HCT116 (p53^+/+)
HCT116 (p53^−/−) = test system: HCT116 (p53^−/−); parameters: method as in PMID 28987608; settings: MTT; read-out: IC50 against HCT116 (p53^−/−)
[3] = test system: p53-wild-type MCF7 (breast cancer) cell line; parameters: method as in PMID 33725632
MCF7 (breast) [4] = test system: MCF7 (breast); parameters: method as in doi:10.31788/RJC.2023.1638506; settings: MTT; read-out: IC50 against MCF7
HeLa (cervical) [5] = test system: HeLa (cervical); parameters: method as in doi:10.31788/RJC.2023.1638506; settings: MTT; read-out: IC50 against HeLa
[6] = test system: MCF7 (breast) cancer cell line; parameters: method as in doi:10.1016/j.molstruc.2023.137026
MCF7 (breast) [7] = test system: MCF7 (breast); parameters: method as in PMID 26256638; settings: MTT; read-out: IC50 against MCF7
PC3 = test system: PC3; parameters: method as in doi:10.3390/separations10040225; settings: MTT; read-out: IC50 against PC3
MDA-MB-231 = test system: MDA-MB-231; parameters: method as in doi:10.3390/separations10040225; settings: MTT; read-out: IC50 against MDA-MB-231
HCT116 (colon) [8] = test system: HCT116 (colon); parameters: method as in PMID 30802707; settings: MTT; read-out: IC50 against HCT116
PC-3 (prostate) = test system: PC-3 (prostate); parameters: method as in PMID 30802707; settings: MTT; read-out: IC50 against PC-3
HepG2 (liver) [9] = test system: HepG2 (liver); parameters: method as in PMID 30802707; settings: MTT; read-out: IC50 against HepG2
[10] = parameters: method as in PMID 30508794; settings: MTT; read-out: IC50 against PC3
HepG2 (liver) [11] = test system: HepG2 (liver); parameters: method as in PMID 30508794; settings: MTT; read-out: IC50 against HepG2
HCT116 (colon) [12] = test system: HCT116 (colon); parameters: method as in PMID 30508794; settings: MTT; read-out: IC50 against HCT116
PC3 (prostate) [13] = test system: PC3 (prostate); parameters: method as in PMID 34684885; settings: MTT; read-out: IC50 against PC3
HeLa (cervical) [14] = test system: HeLa (cervical); parameters: method as in PMID 37935912; settings: SRB; read-out: IC50 against HeLa
[15] = test system: HEK293T (embryonic kidney); parameters: method as in doi:10.1080/10426507.2020.1723590; settings: MTT; read-out: IC50 against HEK293T
A549 (lung) [16] = test system: A549 (lung); parameters: method as in doi:10.1080/10426507.2020.1723590; settings: MTT; read-out: IC50 against A549
p53 = test system: p53; parameters: method as in doi:10.1080/10426507.2020.1723590
MDA-MB-231 “mutant p53” = test system: MDA-MB-231 “mutant p53”; parameters: method as in PMID 37731691; settings: MTT; read-out: IC50 against MDA-MB-231
MCF7 “wild p53” = test system: MCF7 “wild p53”; parameters: method as in PMID 37731691; settings: MTT; read-out: IC50 against MCF7
A549 (lung) [17] = test system: A549 (lung); parameters: method as in PMID 29302672; settings: at 10 μM, CCK-8
MCF7 (breast) [18] = test system: MCF7 (breast); parameters: method as in PMID 29302672; settings: at 10 μM, CCK-8
HCT116 (colon) [19] = test system: HCT116 (colon); parameters: method as in PMID 29302672; settings: at 10 μM, CCK-8
[20] = test system: SJSA-1 (osteosarcoma cancer cell line with wild p53); parameters: method as in PMID 30458062; settings: read-out: IC50 against SJSA-1
[21] = test system: SK-OV-3 (ovarian cancer cell line with mutant p53); parameters: method as in PMID 30458062; settings: read-out: IC50 against SK-OV-3
p53–MDM2 = test system: p53–MDM2; parameters: method as in PMID 30458062
MDA-MB-231 (breast) [22] = test system: MDA-MB-231 (breast); parameters: method as in PMID 36174446; settings: MTT; read-out: IC50 against MDA-MB-231
PC3 (prostate) [23] = test system: PC3 (prostate); parameters: method as in PMID 36174446; settings: MTT; read-out: IC50 against PC3
A549 (lung) [24] = test system: A549 (lung); parameters: method as in PMID 36174446; settings: MTT; read-out: IC50 against A549
HCT-116 (colon) = test system: HCT-116 (colon); parameters: method as in PMID 36174446; settings: MTT; read-out: IC50 against HCT-116

## O=C1Nc2ccc(Br)cc2C12N(c1ccccc1Cl)N=C(c1cccc(Cl)c1)N2c1cccc(Cl)c1 (stereo not drawn)
MCF7
  IC50: 9.5 ± 3.1 µM
[1]
  IC50: 21.4 ± 7.4 µM
MDA-MB-231 (breast) [2]
  IC50: 7.6 ± 2.4 µM
HCT116 (p53^+/+)
  IC50: 13.9 ± 1.1 µM
HCT116 (p53^−/−)
  IC50: 17.7 ± 1.3 µM

## O=C1Nc2ccc(Cl)cc2C12N(c1ccccc1)N=C(c1ccccc1)N2c1cccc(Cl)c1 (stereo not drawn)
MCF7
  IC50: 9.8 ± 1.5 µM
[1]
  IC50: > 100 µM
MDA-MB-231 (breast) [2]
  IC50: 8.9 ± 1.9 µM
HCT116 (p53^+/+)
  IC50: 16.3 ± 0.2 µM
HCT116 (p53^−/−)
  IC50: 17.9 ± 0.6 µM

## Cc1noc([C@@H]2[C@@H](c3ccccc3)[C@H](C(F)(F)F)N[C@@]23C(=O)Nc2cc(Br)ccc23)c1[N+](=O)[O-]
[3]; absence of Fer-1
  IC50: 0.17 µM
[3]; presence of Fer-1
  IC50: 13.7 µM

## Cc1noc([C@@H]2[C@@H](c3ccccc3)[C@H](C(F)(F)F)N[C@@]23C(=O)Nc2cc(Cl)ccc23)c1[N+](=O)[O-]
[3]; absence of Fer-1
  IC50: 0.12 µM
[3]; presence of Fer-1
  IC50: 13.5 µM

## CC(C)(C)OC(=O)N1CCC(c2nc(/C=C3\CCC4(C3=O)C3CCCCN3C3(C(=O)Nc5ccccc53)C4c3csc(C4CCN(C(=O)OC(C)(C)C)CC4)n3)cs2)CC1 (stereo not drawn)
MCF7 (breast) [4]
  IC50: 63.4 µM
HeLa (cervical) [5]
  IC50: 76.3 µM

## CCCN1C(=O)[C@]2(N[C@@H](c3ccc(F)cc3)[C@@]3(Sc4c(C(=O)C(=O)OC)c5ccccc5n4C3=O)[C@H]2C(=O)OC)c2ccc(Cl)cc21
[6]; MCF7, at 25 μg/mL
  cell viability: about 80%

## CCCN1C(=O)[C@]2(N[C@@H](c3ccccc3)[C@@]3(Sc4c(C(=O)C(=O)OC)c5ccccc5n4C3=O)[C@H]2C(=O)OC)c2ccc(Cl)cc21
[6]; MCF7, at 200 μg/mL
  cell viability: 80%

## CN1C[C@H](c2cccc(F)c2)[C@@H](C(=O)C2CC[C@H]3[C@@H]4CC=C5C[C@@H](O)CC[C@]5(C)[C@H]4CC[C@]23C)[C@]12C(=O)Nc1ccccc12 (stereo partly drawn) [23 (R = 3-FC6H4)]
MCF7 (breast) [7]
  IC50: 4.6 ± 0.7 µM

## O=C(c1nc2ccccc2[nH]1)[C@H]1[C@H](c2cccs2)C2CC3CCCCC3N2[C@]12C(=O)Nc1ccc(Cl)cc12 (stereo partly drawn) [39 (R = 2-thienyl)]
PC3
  IC50: 4.314 ± 0.036 µM
MDA-MB-231
  IC50: 3.8 ± 0.205 µM

## O=C(/C=C/c1ccc(Cl)cc1Cl)[C@H]1[C@H](c2ccc(Cl)cc2Cl)C2CSCN2[C@]12C(=O)Nc1ccccc12 (stereo partly drawn) [49 (R = R^1 = 2,4-Cl2C6H3, R^2 = H)]
VERO-B (normal) cells
  IC50: 5 ± 0.245 µM
HCT116 (colon) [8]
  IC50: 2 ± 0.6 µM
PC-3 (prostate)
  IC50: 1.8 ± 0.3 µM
HepG2 (liver) [9]
  IC50: 0.85 ± 0.2 µM

## O=C(c1c[nH]c2ccccc12)C1C(c2ccc(C(F)(F)F)cc2)C2CSCN2C12C(=O)Nc1ccccc12 (stereo not drawn) [51 (R = 4-F3CC6H4)]
[10]
  IC50: 6 ± 0.23 µM
HepG2 (liver) [11]
  IC50: 5.5 ± 0.2 µM
HCT116 (colon) [12]
  IC50: 7 ± 0.27 µM

## O=C1/C(=C/c2ccccc2)CCC[C@@]12[C@H](c1ccccc1)[C@H]1C[C@@H]3CCCC[C@@H]3N1[C@]21C(=O)Nc2cc(Cl)ccc21 [70 (R = Ph, R’ = 6-Cl)]
PC3 (prostate) [13]
  IC50: 3.7 ± 1 µM

## O=C1c2ccccc2OC12C(c1ccc(Cl)cc1)C1CCCCN1C21C(=O)Nc2ccccc21 (stereo not drawn) [77 (R = H)]
HeLa (cervical) [14]
  IC50: 2.5 ± 0.3 µM

## CN1C[C@H](c2ccccc2Cl)[C@]2(NC(=S)N(CC34CC5CC(CC(C5)C3)C4)C2=O)[C@]12C(=O)Nc1ccc(Br)cc12 [89 (R = Br, R’ = 2-ClC6H4)]
[15]
  IC50: 7.63 ± 0.75 µM
A549 (lung) [16]
  IC50: 7.2 ± 1.85 µM

## CN1C[C@H](c2ccc(Cl)cc2)[C@]2(NC(=S)N(CC34CC5CC(CC(C5)C3)C4)C2=O)[C@]12C(=O)Nc1ccc(Br)cc12 [89 (R = Br, R’ = 4-ClC6H4)]
p53; A549, at 100 μM
  p53 receptor activation: 2.03 fold

## CN1CC2(NC(=S)N(CC34CC5CC(CC(C5)C3)C4)C2=O)C2(C1)C(=O)Nc1ccc(Cl)cc12 (stereo not drawn) [92 (R = Cl, R’ = Me)]
[15]
  IC50: 2.8 ± 0.3 µM
A549 (lung) [16]
  IC50: 5 ± 0.6 µM

## CN1CC2(NC(=S)N(CC34CC5CC(CC(C5)C3)C4)C2=O)C2(C1)C(=O)Nc1ccccc12 (stereo not drawn) [92 (R = H, R’ = Me)]
p53; A549, 1.56 to 100 μM compound concentrations
  p53 reporter activation: 1.06 to 4.39 folds

## O=C1N(CCn2cc(CO)nn2)c2cc(Br)ccc2[C@]12[C@@H](c1ccccc1)C(c1ccccc1)=NN2c1ccccc1 [101 (X = (CH2)2)]
MDA-MB-231 “mutant p53”
  IC50: 9.3 µM
MCF7 “wild p53”
  IC50: 11.9 µM

## O=C(c1ccc(Br)cc1)[C@@H]1S[C@@]2(C(=O)Nc3cccc(Br)c32)[C@@H](c2ccccc2)C[C@@H]1O [146 (R^1/R^2/R^3 = 4-Br, 4-BrC6H4, Ph)]
A549 (lung) [17]
  % inhibition, A549: 86.9%
MCF7 (breast) [18]
  % inhibition, MCF7: 50.9%
HCT116 (colon) [19]
  % inhibition, HCT116: 81.7%

## O=C(O)c1ccc([C@H]2C[C@H]3[C@@H](N2)[C@H](c2cccc(Cl)c2F)C2(C(=O)Nc4cc(Cl)ccc42)N3CC2CC2)cc1 (stereo partly drawn) [compound 52, reference compound]
[20]
  IC50: 0.471 µM
[21]
  IC50: > 25 µM
p53–MDM2
  IC50: 0.004 µM

## O=C(O)c1ccc(N2CC3C(C2=O)C(c2cccc(Cl)c2F)C2(C(=O)Nc4cc(Cl)ccc42)N3CC2CC2)cc1 (stereo not drawn) [compound 62]
[20]
  IC50: 0.161 µM
[21]
  IC50: > 25 µM
p53–MDM2
  IC50: 0.004 µM

## O=C(O)c1ccc(N2CCC3C(C2=O)C(c2cccc(Cl)c2F)C2(C(=O)Nc4cc(Cl)ccc42)N3CC2CC2)cc1 (stereo not drawn) [compound 63]
[20]
  IC50: 0.547 µM
[21]
  IC50: > 25 µM
p53–MDM2
  IC50: 0.004 µM

## CC(=O)N1C(=O)[C@@]2(S[C@@H](C(=O)c3ccccc3)[C@@H](O)C[C@@H]2c2ccccc2)c2c(Br)cccc21 [compound 147]
A549 (lung) [17]
  % inhibition, A549: 70.3%
MCF7 (breast) [18]
  % inhibition, MCF7: 77.6%
HCT116 (colon) [19]
  % inhibition, HCT116: 56.4%

## COc1cccc2c1C(=O)c1c(O)c3c(c(O)c1C2=O)C[C@@](O)(C(=O)CO)C[C@@H]3O[C@H]1C[C@H](N)[C@H](O)[C@H](C)O1 [doxorubicin, reference compound]
MDA-MB-231 (breast) [22]
  IC50: 5.82 ± 0.4 µM
PC3 (prostate) [13]
  IC50: 1.9 ± 0.4 µM
PC3 (prostate) [23]
  IC50: 8.8 ± 0.3 µM
MCF7 (breast) [4]
  IC50: 59.4 µM
A549 (lung) [24]
  IC50: 11.5 ± 0.8 µM
HCT-116 (colon)
  IC50: 13.1 ± 2.1 µM
HeLa (cervical) [5]
  IC50: 65.3 µM
